Laboratory results reported in patent US5747503A, “Selective inhibitors of biogenic amine transporters” (priority 1996, dated 1998).
Several values for one entry are separate records, joined by “and”; a condition that tells them apart may be missing. Equal entries are not always repeated. Structures can show the parent of a compound that is named as a salt. Where two headings read alike, the source gives them in different places.

Columns and labels:
PCP site 2 [1] = assay type: binding, guinea pig
Experimental: (§1) Large batches of frozen membranes were prepared with minor modifications of published procedures (Rothman, et al. (1989), supra). Twenty to thirty frozen guinea pig brains with cerebellum were thawed for 15 minutes and homogenized with a Polytron in ice-cold 5 mM Tris-HCl, pH 8.0 (10 ml/brain). The homogenate was centrifuged at 37,000×g for 10 minutes, and the pellet was washed by resuspension in the same volume of buffer followed by recentrifugation. The pellets were resuspended in an equal volume of 5 mM Tris-HCl, pH 8.0, and the concentration was adjusted to 50 mM by the addition of 1M Tris-HCl, pH 8.0. The homogenate was centrifuged for 10 min at 37,000×g. The pellets were then washed three times by resuspension and centrifugation using 50 mM Tris-HCl, pH 8.0. The final pellets were resuspended in the Tris-HCl buffer (0.5 ml/brain), pooled and 1 ml aliquots were distributed to microfuge tubes, which were stored at -70° for assay.
The [^3 H]TCP binding assay for PCP site 2 was conducted with minor modifications of published protocols (Rothman, et al. (1989), supra). Briefly, 12×75 mm polystyrene test tubes were prefilled with 100 μl of [^3 H]TCP (2 nM final concentration) in a protease inhibitor cocktail (PIC) containing 5000 nM (+) -MK801, 100 μl of distilled H2 O or drug (in distilled H2 0), 50 μl of buffer (5 mM Tris-HCL, pH 8.0), and 750 μl of membrane (0.5-1.0 mg/ml protein, in 5 mM Tris-HCl, pH 8.0). […] The protease inhibitor cocktail was composed of 25 μg/ml leupeptin, 25 μg/ml chymostatin, 0.1 mM EDTA, and 0.1 mM ethylene glycol-bis-(beta-aminoethyl-ether)-N,N,N',N'-tetraacetic acid (EGTA). The incubation time was 18-24 hours at 4° C. (steady state) in a final volume of 1 ml. Triplicate samples were filtered with an MR24 Brandel Cell Harvester and washed with two 5 ml aliquots of ice cold buffer. Whatman GF/B filters were presoaked in buffer containing 2% polyethylenimine. The tritium retained on the filters was measured using a Taurus scintillation counter at 44% efficiency after an overnight extraction into ICN Cytoscint cocktail. Non specific binding was determined using 10 μM of TCP. Protein was determine using the method of Lowry, et al., supra.
(§2) Inhibition curves were fit to the two parameter logistic equation for the best-fit estimates of the IC50 using nonlinear least squares curve fitting methods as previously described (Rothman et al. (1993), supra); Jones, S. M. and Rogawski, M. A. Mol. Neuropharmacol. 2: 303-310 (1992)).
(§3) ^a The binding assays for PCP (site 2) and PCP (site 1) were conducte
(§4) as previously reported (Rothman, R. B., et al., In: Multiple Sigma and PC
(§5) Receptor Ligands: Mechanisms for Neuromodulation and Protection 307-330
(§6) (Domino, E. F. and Kamenka, J. M., eds., 1992) using [^3 H]TCP in the
(§7) presence of (+)MK801 for site 2 and [^3 HMK801 for site 1 except that
the [^3 H]TCP assays were terminated after 18-24 hours of incubation

PCP site 1 = experiment: [^3 H](+)-MK801 binding to PCP site 1; set-up: species or system guinea pig
Experimental: as §1, with “assay. […]” for “assay.”
as §2, §3, §4, §5, §6, §7

PCP site 2 [2] = conditions: guinea pig brain membranes; literature; cited from earlier work
[3] = Table 1, [^3 H]TCP in presence of (+)MK801, 18-24 hours at 4° C.

SMILES | IC50 (PCP site 2 [1]; Table 3, guinea pig membranes) | IC50 (PCP site 1; Table 3, guinea pig membranes) [nM] | other results
CN1[C@@H](Cc2ccc(Cl)cc2)C[C@@H]2Cc3ccccc3[C@@H]21 (racemic) [RTI-4793-45, (2RS,3aSR,8bRS)-1,2,3,3a,4,8b-Hexahydro-2-(4-chlorobenzyl)-1-methylindeno-[1,2-b]pyrrole Hydrochloride] | 254 ± 18 nM | > 2000 | –
CN1CC[C@@H]2Cc3ccccc3[C@@H]21 (relative stereo) [3a] | – | – | affinity/selectivity for PCP site 2 in words (PCP site 2 [1]): low affinity at both sites; IC50 (PCP site 2 [1]; [3]): > 10000 nM; affinity for PCP site 1 in words (PCP site 1): low affinity at both sites; IC50 (PCP site 1; Table 1, [^3 H]MK801): > 20000 nM
CCOC(=O)[C@H]1C[C@@H]2Cc3ccccc3[C@@H]2N1C (relative stereo) [3d] | – | – | IC50 (PCP site 2 [1]; [3]): 16700 nM; IC50 (PCP site 1; Table 1, [^3 H]MK801): > 20000 nM
CC[C@H]1C[C@@H]2Cc3ccccc3[C@@H]2N1C (relative stereo) [3e] | – | – | IC50 (PCP site 2 [1]; [3]): 326 ± 49 nM; relative potency for site 2 versus 3b (PCP site 2 [1]; versus 3b): approximately ten-times less than that of 3b; affinity for PCP site 1 in words (PCP site 1): low affinity at both sites; IC50 (PCP site 1; Table 1, [^3 H]MK801): > 20000 nM
CN1[C@H](Cc2c[nH]c3ccccc23)C[C@H]2Cc3ccccc3[C@H]21 (relative stereo) [RTI-4793-44, (2RS, 3aSR, 8bRS) -1,2,3,3a, 4,8b-Hexahydro-2-(3-methanoindole)-1-methylindeno-[1,2-b]pyrrole Hydrochloride] | 114 ± 12 nM | > 2000 | –
COc1ccc(C[C@@H]2C[C@H]3Cc4ccccc4[C@H]3N2C)cc1 (relative stereo) [RTI-4793-46, (2RS,3aSR,8bRS)-1,2,3,3a,4,8b-Hexahydro-2-(4-methoxybenzyl)-1-methylindeno[1,2-b1pyrrole Hydrochloride] | 148 ± 23 nM | > 2000 | –
c1ccc(CC2CC3CN2Cc2ccccc23)cc1 (single isomer, unassigned; (+)) [(+)-RTI-4793-41] | 4.4 ± 0.7 nM | > 2000 | IC50 (PCP site 2 [1]; Table 3, guinea pig membranes, listed as (+) optical isomer of RTI-4793-41): 4.4 nM
c1ccc(CC2CC3CN2Cc2ccccc23)cc1 (single isomer, unassigned; (-)) [(-)-RTI-4793-41] | 28.9 ± 3 nM | > 2000 | –
CN1[C@@H](Cc2ccccc2)C[C@@H]2Cc3ccccc3[C@@H]21.O=C(O)c1ccc(O)cc1O [(-)-RTI-4793-14] | 316 ± 58.7 nM | > 2000 | –
c1ccc(CC2CC3CN2Cc2ccccc23)cc1 (stereo not drawn) [RTI-4793-41] | 15 nM and 15.6 nM | > 2000 | affinity/selectivity for PCP site 2 in words (PCP site 2 [1]): high affinity and selectivity
BrC1CC2CN(Cc3ccccc32)C1c1ccccc1 (stereo not drawn) [RTI-4793-47] | 68.8 ± 11.5 nM | > 2000 | –
c1ccc(C2CCC3CN2Cc2ccccc23)cc1 (stereo not drawn) [RTI-4793-48] | 42 nM and 42.3 nM | > 2000 | affinity/selectivity for PCP site 2 in words (PCP site 2 [1]): high affinity and selectivity
COc1ccc(CC2CC3CN2Cc2ccccc23)cc1 (stereo not drawn) [RTI-4793-49] | 106 ± 13.8 nM | > 2000 | –
Fc1ccc(CC2CC3CN2Cc2ccccc23)cc1 (stereo not drawn) [RTI-4793-50] | 73.5 ± 9 nM | > 2000 | –
c1ccc(CCC2CC3CN2Cc2ccccc23)cc1 (stereo not drawn) [RTI-4793-51] | 289 ± 22 nM | > 2000 | –
c1ccc(CCCCC2CC3CN2Cc2ccccc23)cc1 (stereo not drawn) [RTI-4793-52] | 302 ± 28 nM | > 2000 | –
c1csc(CC2CC3CN2Cc2ccccc23)c1 (stereo not drawn) [RTI-4793-55] | 43.2 ± 6.58 nM | > 2000 | –
c1csc(C2(N3CCCCC3)CCCCC2)c1 [TCP] | – | – | binding of [^3 H]TCP to two sites (PCP site 1 and PCP site 2) (PCP site 2 [2]): high affinity
